Data on 112 compounds can be found in a melting point compilation (Tetko et al.).

With `COc1c(Cl)c(Cl)c(Cl)c(Cl)c1OC`, the melting point (usually the temperature, or range, at which the solid turns liquid) is 90 °C.

For `O=C(NNc1ccccc1)C1CCCCC1`, the melting point turned out to be 164 °C. The compound `O=C(O)c1nsc(Cl)c1Cl` showed a melting point of 169 °C. As for `COc1ccc(C2(C(=O)O)CCCCC2)cc1`, the melting point lay in the range of 172 to 177 °C.

`O=C(O)COc1ccc(Cl)c(Cl)c1` gave a melting point of 139 °C. On to `CCCSc1nnc(S)s1`, for which the melting point lay in the range of 145 to 147 °C. On to `Fc1cc(Br)ccc1I`, for which the melting point was 48 °C. As to `N#Cc1ccc2occc2c1`, the melting point lay in the range of 84 to 86 °C. For the compound `Cc1cc(=O)n(-c2ccccc2)n1C`, the melting point was 114 °C. Compound `CC(C)c1cc(Br)c(N)c(Br)c1` gave a melting point of 46 °C. Take `COC(=O)c1ccc([N+](=O)[O-])c(OC)c1`: the melting point came out at 85 °C.

Compound `CCCCCCCCC(CCCCCCCC)C(=O)O` displayed a melting point of 38.5 °C. `O=C(Cl)c1ccc(Cl)c([N+](=O)[O-])c1` showed a melting point of 53.5 °C. For `COc1cc2c(c(OC)c1OC)-c1ccc(O)c(=O)cc1C(NC(C)=O)CC2` (configuration not stated), the melting point was found to be 178 °C. For `CC(=O)Nc1ccc(C#Cc2ccc(NC(C)=O)cc2)cc1` the value was 281 °C. The figure for `Clc1ncccc1-c1ccc(Br)cn1` is 132 °C; for `Cc1cc(F)ccc1N` it is 14.2 °C; for `CC(C)CN(CC(C)C)CC(C)C` it is -21.8 °C. The compound `FC(F)(F)c1cc(-n2cccc2)cc(C(F)(F)F)c1` returned a melting point of 43 to 45 °C. Compound `Cc1cccc(NC(=O)c2cncc(Cl)n2)c1` yielded a melting point of 84 °C.

Compound `Cn1ccc(=O)c2ccccc21` displayed a melting point of 152 °C. Take `CC=CCCC=CC`: the melting point was -76 °C.

`CC(=O)C=Cc1ccc(Cl)cc1` showed a melting point of 55 °C.

Compound `O=S(=O)(Cl)c1ccsc1` displayed a melting point of 44 to 45 °C. The figure for `Brc1ccc2nonc2c1` is 72 to 74 °C; for `COc1cc(C(=O)c2ccc(Cl)cc2)cc(OC)c1OCCN1CCOCC1` it is 91.5 °C.

`N#Cc1ccccc1CCl` had a melting point of 61 °C. `CNc1ccc2cc3ccc4c(c3nc2c1CO)COCN4` returned a melting point of 105 °C. Regarding `COc1ccc(-c2cc3ccccc3cn2)cc1`, the melting point was in the range of 98.5 to 100 °C. Turning to `C=C(Cl)C#N`, the melting point was -65 °C. On to `CCCCC(CC)COC(=O)CCCCCCCC(=O)OCC(CC)CCCC` (configuration not stated), for which the melting point was -78 °C. On to `NC(CCCC(N)C(=O)O)C(=O)O` (configuration not stated), for which the melting point was 300 °C. For `O=[N+]([O-])c1ccc(C(Br)C(Br)c2cccc3ccccc23)c([N+](=O)[O-])c1` (configuration not stated) the value was 161 °C.

Regarding `O=C(C(C(=O)N1CCOCC1)c1ccccc1)N1CCOCC1`, the melting point is 187 °C. Consider `c1ccc2c(c1)CCc1ccccc1C2`, for which the melting point was in the range of 72 to 76 °C. The figure for `O=C1c2ccccc2C1Cl` (configuration not stated) is 67 °C.

Take `ICCCCCCCCI`: the melting point lay within 16 to 21 °C. Turning to `CCCCCCCCCCCCCCCCc1ccccc1`, the melting point fell in the range of 25 to 29 °C. Compound `CCOC(=O)c1c(-c2ccccc2)csc1NC(=O)CCl` showed a melting point of 99 to 100 °C. For `Cc1nc(-c2ccccc2)no1` the value was 35 °C. For `O=C(Oc1c(-c2ccccc2)[nH]c2cc([N+](=O)[O-])ccc12)c1ccccc1` the value was 229 °C.

`O=C(O)c1cc2sccc2[nH]1` registered a melting point of 180 °C.

Compound `O=C(CCl)Nc1ccc(F)c(Cl)c1` came in with a melting point of 96 to 98 °C. Compound `CCOC(=O)Nc1c([N+](=O)[O-])cc(Cl)cc1[N+](=O)[O-]` had a melting point of 167 °C. `Cc1ccc2cc(Cl)c(Cl)cc2n1` gave a melting point of 121 to 123 °C.

`Cn1c(=O)c(C2=NNC(=O)C2=NNc2cccc(Br)c2)c(O)c2ccccc21` had a melting point of 240 °C. For the compound `CCCC(=O)CCC`, the melting point was -33 °C. The figure for `Nc1cc(C(=O)O)cc([N+](=O)[O-])c1` is 216 °C; for `CCN(CC)Cc1c(N)c2ccccc2oc1=O` it is 133 °C.

Take `CC(=O)OC(OC(C)=O)c1ccc2c(c1)C(=O)c1c(Cl)c(Cl)c(Cl)c(Cl)c1C2=O`: the melting point was 172 °C. Take `S=C=Nc1c(Br)cc(Br)cc1Br`: the melting point was 106 to 110 °C. For `COC(=O)c1ccccc1SCC#N`, the melting point fell in the range of 121 to 124 °C.

Consider `Nc1c(Br)cc(Br)cc1Cc1ccccc1`, for which the melting point came to 195 °C. In turn, `CC(=O)Nc1ccc(CC#N)cc1` had a melting point of 82 to 83 °C. For `O=S(=O)(O)c1cccc2cccc(Cl)c12` the value was 145 to 147 °C; for `COc1ccc(F)c(C#N)c1`, 83 °C.

`Cn1ncc2cc([N+](=O)[O-])ccc21`: the melting point is 160 °C. `Cn1c(S)nnc1-c1ccc(Cl)cc1Cl` returned a melting point of 175 to 177 °C. `OCCOCCOCCOCCOCCOCCO` yielded a melting point of 6 °C. For `CC12CCC(O)CC1CCC1C2C(O)CC2(C)C(c3ccc(=O)oc3)CCC12O` (configuration not stated) the value was 254 °C; for `Cc1ccc(C(=O)C(C)CN2CCCCC2)cc1` (configuration not stated), 176 °C. For `CC12CCC3c4ccc(OC5CCCC5)cc4CCC3C1CC(O)C2O` (configuration not stated) the value was 99 °C. For the compound `Brc1c(Br)c(Br)c(Br)c(Br)c1Br`, the melting point came out at 326 °C.

Take `O=C(NC(Cc1cccnc1)C(=O)O)OCC1c2ccccc2-c2ccccc21` (configuration not stated): the melting point turned out to be 166 °C. The figure for `CC1NC(C)SC(C)S1` (configuration not stated) is 46 °C. The figure for `COC(=O)C1CCC(C)(C(C)(C)O)OC1(C)C` (configuration not stated) is 139 °C; for `O=C(O)Cc1ccccc1Nc1c(Cl)cccc1Cl` it is 157 °C; for `CC(C)OC(=O)C1(S(=O)(=O)c2ccc(Cl)cc2)CCCC1` it is 92.5 °C. For `COC(=O)C=C(CCl)OC` the value was 25 °C; for `CC1OC(Oc2c[nH]c3ccc(Br)c(Cl)c23)C(O)C(O)C1O` (configuration not stated), 213 to 217 °C; for `O=c1[nH]ncc(Cl)c1Cl`, 202 °C. In the case of `CNC(=O)ON=C(C)C(C)S(C)(=O)=O` (configuration not stated), the melting point stood at 87 °C. As to `O=Cc1cc(C=O)c(O)c(C=O)c1`, the melting point lay in the range of 179 to 180 °C. The compound `CC1(C)C(=O)OC2=C(CC3C4CC=C5CC(O)CCC5(C)C4CCC23C)C1c1ccccc1` (configuration not stated) returned a melting point of 230 to 235 °C. The compound `CC1CCC2(C(=O)O)CCC3(C)C(=CCC4C5(C)CCC(O)C(C)(C)C5CCC43C)C2C1C` (configuration not stated) showed a melting point of 284 °C. With `CC(=O)/C=C/c1ccc([N+](=O)[O-])o1`, the melting point lay in the range of 192 to 195 °C. `Cc1ccc(C(=O)NS(=O)(=O)c2ccc(N)cc2)cc1C` came in with a melting point of 222 °C.

In turn, `O=C(O)C(F)(F)C(F)(F)C(F)(F)C(F)(F)C(F)(F)C(F)(F)F` had a melting point of 31 to 36 °C.

In the case of `O=[N+]([O-])c1ccc(OCCN2CCOCC2)cc1`, the melting point was 84 to 86 °C. For `CCOc1ccccc1C(C)=O` the value was 40 °C; for `Clc1ccc2ncccc2c1`, 43.8 °C.

With `COc1ccc(C2C(C#N)=C(N)Oc3c2c(C(F)(F)F)nn3-c2ccccc2)cc1` (configuration not stated), the melting point was 211 °C. `CC1(c2ccc([N+](=O)[O-])cc2)Nn2c(nnc2C(F)(F)F)S1` (configuration not stated) displayed a melting point of 255 °C.

Regarding `CC(=O)CC(=O)Nc1ccccc1Cl`, the melting point came out at 105 °C. Compound `CC(=O)c1cc(F)cc(F)c1O` yielded a melting point of 109 to 110 °C. For `CC(O)CC(C)(C)O` (configuration not stated) the value was -40 °C; for `COc1cc(C)ccc1S(=O)(=O)Cl`, 87 °C. With `Cc1cccc(C)c1OCC(C)N` (configuration not stated), the melting point was 204 °C. Regarding `COc1ccc(SSc2ccc(OC)cc2)cc1`, the melting point lay in the range of 40 to 42 °C. For `COc1cc(/C=C/C(=O)O)ccc1O` the value was 173 °C; for `O=C=Nc1ccc(Cl)cc1Cl`, 59 to 60 °C. `CNC(=O)ON=C(C)C(C)SC` (configuration not stated): the melting point is 37 °C. In turn, `Cc1cc([N+](=O)[O-])cc(Br)c1N` yielded a melting point of 177 to 183 °C. Compound `CCOC(=O)c1csc(N2CCOCC2)n1` displayed a melting point of 88.5 to 90 °C. On to `CC(C)(C)NC(=O)NN`, for which the melting point fell in the range of 119 to 120 °C. In turn, `Cn1c2ccccc2c2cc([N+](=O)[O-])ccc21` displayed a melting point of 172 to 174 °C. The figure for `O=C1/C(=N\Nc2cc(-c3ccccc3)n[nH]2)C(C(F)(F)F)=NN1c1ccccc1` is 280 °C; for `Cc1ccc(S(=O)(=O)NC(=O)NN2CCCCCC2)cc1` it is 170 °C; for `CCOc1cc(-c2nccc3cc(OC)c(OC)cc23)cc(OCC)c1OCC` it is 98 to 103 °C.

`Cc1ccc(Cl)c(O)c1F` displayed a melting point of 48 °C. Take `OC(O)C(F)(F)C(F)(F)C(F)(F)C(F)(F)C(F)(F)C(F)(F)C(F)(F)C(F)(F)F`: the melting point is 91 to 94 °C. For `COc1ccccc1-c1ccc(/C=C2/C=C(CC(C)C)OC2=O)o1`, the melting point was 89 °C. The compound `Sc1nc(-c2ccccc2)c(-c2ccccc2)o1` returned a melting point of 253 °C.

Turning to `Cc1ccc(N/N=C(/C#N)c2nc(-c3ccc(Cl)cc3)cs2)cc1`, the melting point came to 208 °C.

`COc1ccc(/N=N/c2sc(/C(C#N)=N/Nc3ccc(F)cc3)nc2C)cc1` displayed a melting point of 214 °C.

`CCCC(C)CCC` registered a melting point of -121 °C.

In turn, `O=C(O)C=C1OC(=O)c2ccccc21` came in with a melting point of 287 to 290 °C.

As for `COC(=O)C=Cc1ccc(OC)c(OC2CCCC2)c1`, the melting point was 54 to 57 °C.

For `O=c1c2ccccc2[nH]c(=S)n1-c1ccc(F)cc1`, the melting point lay within 337 to 339 °C. With `Nc1ccccc1Cn1cncn1`, the melting point lay within 56 to 57 °C. Turning to `c1ccc(Oc2ccccc2-c2ccccc2)cc1`, the melting point is 49 °C. For `COc1ccc(C(=O)O)cc1Br` the value was 220 °C.
